Measured values: US6894075B2, “4′-demethyl-4′-O-substituted-1-deoxypodophyllotoxin derivative and geometric isomer thereof, process for the preparation thereof and anti-cancer composition comprising the same” (priority 2000, dated 2005)
Where “and” joins values, the source holds several entries; their conditions need not be identical. Identical values can stand only once. Like-named read-outs stand apart in the source and are kept apart here.

Tests used:
[1] = system: mouse leukemia cell line L1210; details: L1210 transplanted into CDF1 mouse, compared with the negative control (Terada et al. 1992); cited from earlier work
[2] = system: Lewis Lung Cancer Cell (LLC); experiment: Anti-cancer test for BDF1 mouse transplanted by Lewis Lung Cancer Cell, Experiment 2-1 (formulae 1a, 1b); assay type: in vivo; details: peritoneal injection 0.06 mmole/kg/day at days 1, 2, 4, 7, 8 (etoposide 36 mg/kg), cancer volume at 14 to 16 days
Description: In order to evaluate the anti-cancer activity of the compounds of the present invention, LLC, which is a lung cancer cell of mouse, was transplanted into the hypodermic region of BDF1 mouse to induce a solid cancer. […] Experiment for the compounds of formulae (1a) and (1b) and that for the compound of formula (1c) were separately carried out.
Male BDF1 mouse (Weight 18 to 25 g), being in good health and purchased from Korea Biolink Co., was used as a test animal.
The mice were bred at a place controlled to the temperature of 23 to 24° C. while provided with water and feed ad libitum. As the feed, feed for mouse containing no antibiotics was used. The hypodermic tissue of C57BL/6 mouse, which includes cells cultured therein for 14 days, was taken up. Sterilized cold physiological saline was added to the tissue in the amount of 5 ml/g tissue to make a cell suspension. This cell suspension of 0.2 ml was transplanted into the hypodermic region of armpit of BDF1 mouse.
(§1) Each group includes 5 mice. After 24 hours from the transplantation, each test compound of formulae (1a) and (1b) was dissolved in 4% Tween 80 and injected peritoneally in the amount of 0.2 ml and in a concentration of 0.06 mmole/kg/day (that is, 0.06 mmole of each test compound was dissolved in 10 ml of 4% Tween 80, and then 0.2 ml of the resulting solution was peritoneally injected into a mouse). Only 4% Tween 80 was injected for the negative control group, and the same moles of etoposide (36 mg/kg) was injected for the positive control group. The injection was performed five times at 1, 2, 4, 7 and 8 days from the transplantation of cancer.
The anti-cancer effect was determined by measuring the volume of cancer of the control and test groups at 14 to 16 days from the administration of drugs and then calculated as follows. Volume of Cancer(mm^3)=Length(mm)×Width^2(mm^2)/2 Suppression Rate of Cancer Growth(%)=(C−T)×100(%)/C in which • C represents the average volume of cancer (mm^3) of the control group, and • T represents the average volume of cancer (mm^3) of the test group.

[3] = Weight change in the period of drug administration; assay type: in vivo, mouse; details: for Weight of mouse, Day 1: Day 1 from the cancer cell transplantation; for Weight of mouse, Day 2: Day 2 from the cancer cell transplantation; for Weight of mouse, Day 3: Day 3 from the cancer cell transplantation; for Weight of mouse, Day 4: Day 4 from the cancer cell transplantation; for Weight of mouse, Day 5: Day 5 from the cancer cell transplantation; for Weight of mouse, Day 6: Day 6 from the cancer cell transplantation; for Weight of mouse, Day 7: Day 7 from the cancer cell transplantation; for Weight of mouse, Day 8: Day 8 from the cancer cell transplantation
Description: as §1
As an index of toxicity, the weight change during the period of drug administration was recorded for the compounds of formulae (1a) and (1b) compared with the comparison compound of Etoposide.

A549 cell = experiment: Cytotoxicity test (SRB method) for A549 cells; assay type: cell-based, human; details: for EC50: read-out: ED50(nM) for A549
Outline: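 SRB assay: cells seeded 24 h at 37 °C, then exposed 48 h to samples at 0.1, 0.03, 0.01 and 0.003 mg/ml final. TCA-fixed, SRB-stained, OD read at 520 nm. Growth is calculated against time-zero and untreated controls, and ED50 is the concentration giving 50% growth inhibition, obtained by regression.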

[4] = A549 human lung cancer cell, SRB, 48 hours incubation

| Compound | extension effect of life span [1] | Suppression Rate for LLC [2] | Weight of mouse, Day 1 [3] [g] | Weight of mouse, Day 2 [3] [g] | Weight of mouse, Day 3 [3] [g] | Weight of mouse, Day 4 [3] [g] | Weight of mouse, Day 5 [3] [g] | Weight of mouse, Day 6 [3] [g] | Weight of mouse, Day 7 [3] [g] | Weight of mouse, Day 8 [3] [g] | EC50 (A549 cell; Homo sapiens, A549, 48 h) [nM] | EC50 (A549 cell; [4]) [nM] | cytotoxicity compared with DPT (A549 cell; A549, in words) |
| --- | --- | --- | --- | --- | --- | --- | --- | --- | --- | --- | --- | --- | --- |
| COc1cc([C@@H]2c3cc4c(cc3C[C@H]3COC(=O)[C@@H]32)OCO4)cc(OC)c1OC [DPT, Deoxypodophyllotoxin] | about 12% | 60% and 60.2% | 23.1 | 23.9 | 24 | 24 | 24.4 | 25 | 25 | 24.9 | 75.5 | – | – |
| COc1cc(C2c3cc4c(cc3CC3COC(=O)C32)OCO4)cc(OC)c1OC(=O)CCCN (stereo not shown) [Compound 1a-11, 4′-demethyl-4′-O-(4-aminobutanoyl)-1-deoxypodophyllotoxin] | – | 82% | 22.8 | 24 | 24.2 | 25 | 24.4 | 25.4 | 25.4 | 25.5 | – | 91.6 | – |
| COc1cc(C2c3cc4c(cc3CC3COC(=O)C32)OCO4)cc(OC)c1OC(=O)CCCCN (stereo not shown) [Compound 1a-12, 4′-demethyl-4′-O-(5-aminopentanoyl)-1-deoxypodophyllotoxin] | – | 82% | 22.8 | 24.2 | 25 | 25.4 | 24.8 | 26 | 25.8 | 26.2 | – | 90.3 | – |
| COc1cc(C2c3cc4c(cc3CC3COC(=O)C32)OCO4)cc(OC)c1OC(=O)CCN (stereo not shown) [Compound 1a-10, 4′-demethyl-4′-O-(3-aminopropanoyl)-1-deoxypodophyllotoxin] | – | 78% | 22.9 | 24.1 | 25 | 25.1 | 25.5 | 25.3 | 25 | 25.3 | – | 96.7 | – |
| COc1cc(C2c3cc4c(cc3CC3COC(=O)C32)OCO4)cc(OC)c1OC(=O)C(N)CC(C)C (stereo not shown) [Compound 1a-2, 4′-demethyl-4′-O-leucinoyl-1-deoxypodophyllotoxin] | – | 88% | 23.3 | 24.3 | 25 | 26.1 | 26 | 25 | 25.3 | 26.1 | – | 68 | stronger cytotoxicity than DPT |
